Results from the NIST ThermoML archive (doi:10.1021/je8000975).
Numbers after ± are expanded uncertainties.

What was measured:
[1] = Liquid; for speed of sound: Sing-around technique in a fixed-path interferometer
[2] = xn = mol fraction of the nth substance listed; details: 101 kPa, Liquid

COCCOCCO [2-(2-methoxyethoxy)ethanol]
[1]
Details | mass density [kg/m3] | speed of sound [m/s]
293.15 K | 1019.81 ± 1.3 | 1432.4 ± 2.1
298.15 K | 1015.41 ± 1.3 | 1415.2 ± 2.1
303.15 K | 1010.91 ± 1.2 | 1397.9 ± 2.1

COCCOCCO [2-(2-methoxyethoxy)ethanol] + COCCO
[2]
Details | mass density [kg/m3]
293.15 K, x2 = 0.1005 | 1016.02 ± 1
293.15 K, x2 = 0.1489 | 1014.09 ± 0.94
293.15 K, x2 = 0.1983 | 1012.06 ± 0.88
293.15 K, x2 = 0.2003 | 1011.98 ± 0.88
293.15 K, x2 = 0.2517 | 1009.77 ± 0.82
293.15 K, x2 = 0.2969 | 1007.77 ± 0.76
293.15 K, x2 = 0.2993 | 1007.67 ± 0.76
293.15 K, x2 = 0.3475 | 1005.45 ± 0.71
293.15 K, x2 = 0.3505 | 1005.31 ± 0.7
293.15 K, x2 = 0.3985 | 1003.01 ± 0.65
293.15 K, x2 = 0.45 | 1000.45 ± 0.6
293.15 K, x2 = 0.5003 | 997.85 ± 0.56
293.15 K, x2 = 0.5998 | 992.362 ± 0.51
293.15 K, x2 = 0.6476 | 989.566 ± 0.49
293.15 K, x2 = 0.6993 | 986.398 ± 0.47
293.15 K, x2 = 0.7475 | 983.311 ± 0.46
293.15 K, x2 = 0.7485 | 983.242 ± 0.46
293.15 K, x2 = 0.7971 | 979.992 ± 0.44
293.15 K, x2 = 0.8465 | 976.527 ± 0.43
293.15 K, x2 = 0.8977 | 972.767 ± 0.43
293.15 K, x2 = 0.9483 | 968.858 ± 0.42
298.15 K, x2 = 0.0523 | 1013.47 ± 1.1
298.15 K, x2 = 0.1027 | 1011.52 ± 0.98
298.15 K, x2 = 0.1523 | 1009.54 ± 0.92
298.15 K, x2 = 0.1974 | 1007.67 ± 0.86
298.15 K, x2 = 0.2507 | 1005.39 ± 0.8
298.15 K, x2 = 0.294 | 1003.47 ± 0.75
298.15 K, x2 = 0.3472 | 1001.02 ± 0.69
298.15 K, x2 = 0.3976 | 998.612 ± 0.64
298.15 K, x2 = 0.4502 | 995.991 ± 0.61
298.15 K, x2 = 0.4981 | 993.508 ± 0.58
298.15 K, x2 = 0.5 | 993.405 ± 0.57
298.15 K, x2 = 0.5455 | 990.948 ± 0.55
298.15 K, x2 = 0.5989 | 987.943 ± 0.52
298.15 K, x2 = 0.6471 | 985.114 ± 0.5
298.15 K, x2 = 0.7005 | 981.838 ± 0.48
298.15 K, x2 = 0.749 | 978.717 ± 0.47
298.15 K, x2 = 0.7983 | 975.395 ± 0.45
298.15 K, x2 = 0.846 | 972.046 ± 0.45
298.15 K, x2 = 0.8832 | 969.324 ± 0.44
298.15 K, x2 = 0.8956 | 968.391 ± 0.44
298.15 K, x2 = 0.9483 | 964.311 ± 0.43
303.15 K, x2 = 0.0536 | 1008.92 ± 1
303.15 K, x2 = 0.1018 | 1007.06 ± 0.97
303.15 K, x2 = 0.15 | 1005.13 ± 0.9
303.15 K, x2 = 0.2011 | 1003.02 ± 0.84
303.15 K, x2 = 0.2499 | 1000.92 ± 0.78
303.15 K, x2 = 0.2515 | 1000.85 ± 0.78
303.15 K, x2 = 0.301 | 998.636 ± 0.73
303.15 K, x2 = 0.3527 | 996.24 ± 0.69
303.15 K, x2 = 0.3986 | 994.036 ± 0.65
303.15 K, x2 = 0.4493 | 991.5 ± 0.62
303.15 K, x2 = 0.5028 | 988.711 ± 0.58
303.15 K, x2 = 0.5499 | 986.158 ± 0.56
303.15 K, x2 = 0.6 | 983.323 ± 0.53
303.15 K, x2 = 0.6482 | 980.488 ± 0.51
303.15 K, x2 = 0.6941 | 977.672 ± 0.49
303.15 K, x2 = 0.7485 | 974.182 ± 0.48
303.15 K, x2 = 0.7979 | 970.854 ± 0.47
303.15 K, x2 = 0.8989 | 963.546 ± 0.45
303.15 K, x2 = 0.9476 | 959.766 ± 0.45

CCCCOCCO [2-butoxyethan-1-ol]
[1]
Details | mass density [kg/m3] | speed of sound [m/s]
293.15 K | 900.094 ± 1.5 | 1322.5 ± 2.1
298.15 K | 895.91 ± 1.5 | 1304.9 ± 2.1
303.15 K | 891.697 ± 1.5 | 1288 ± 2.1

CCCCOCCO [2-butoxyethan-1-ol] + COCCO
[2]
Details | mass density [kg/m3]
293.15 K, x2 = 0.0524 | 902.021 ± 1.2
293.15 K, x2 = 0.1023 | 903.942 ± 1.1
293.15 K, x2 = 0.1513 | 905.929 ± 1.1
293.15 K, x2 = 0.2009 | 908.026 ± 1
293.15 K, x2 = 0.2491 | 910.172 ± 0.97
293.15 K, x2 = 0.3006 | 912.586 ± 0.92
293.15 K, x2 = 0.3411 | 914.561 ± 0.89
293.15 K, x2 = 0.3986 | 917.531 ± 0.84
293.15 K, x2 = 0.4484 | 920.249 ± 0.8
293.15 K, x2 = 0.4994 | 923.189 ± 0.75
293.15 K, x2 = 0.5492 | 926.262 ± 0.71
293.15 K, x2 = 0.5987 | 929.459 ± 0.68
293.15 K, x2 = 0.6489 | 932.911 ± 0.64
293.15 K, x2 = 0.7291 | 938.888 ± 0.58
293.15 K, x2 = 0.7487 | 940.45 ± 0.57
293.15 K, x2 = 0.7996 | 944.683 ± 0.53
293.15 K, x2 = 0.8491 | 949.097 ± 0.5
293.15 K, x2 = 0.8992 | 953.883 ± 0.47
293.15 K, x2 = 0.9495 | 959.058 ± 0.45
298.15 K, x2 = 0.0522 | 897.844 ± 1.2
298.15 K, x2 = 0.1029 | 899.781 ± 1.1
298.15 K, x2 = 0.15 | 901.679 ± 1.1
298.15 K, x2 = 0.2019 | 903.86 ± 1
298.15 K, x2 = 0.2489 | 905.939 ± 0.98
298.15 K, x2 = 0.2999 | 908.306 ± 0.93
298.15 K, x2 = 0.3514 | 910.818 ± 0.89
298.15 K, x2 = 0.3994 | 913.289 ± 0.85
298.15 K, x2 = 0.449 | 915.99 ± 0.81
298.15 K, x2 = 0.4755 | 917.493 ± 0.78
298.15 K, x2 = 0.4987 | 918.836 ± 0.77
298.15 K, x2 = 0.5985 | 925.072 ± 0.69
298.15 K, x2 = 0.6476 | 928.432 ± 0.65
298.15 K, x2 = 0.6975 | 932.045 ± 0.62
298.15 K, x2 = 0.7481 | 935.968 ± 0.58
298.15 K, x2 = 0.7988 | 940.157 ± 0.55
298.15 K, x2 = 0.8476 | 944.484 ± 0.52
298.15 K, x2 = 0.8993 | 949.386 ± 0.48
298.15 K, x2 = 0.9478 | 954.336 ± 0.46
303.15 K, x2 = 0.0483 | 893.466 ± 1.2
303.15 K, x2 = 0.1002 | 895.434 ± 1.1
303.15 K, x2 = 0.1519 | 897.493 ± 1.1
303.15 K, x2 = 0.1997 | 899.493 ± 1
303.15 K, x2 = 0.2393 | 901.221 ± 0.99
303.15 K, x2 = 0.2476 | 901.59 ± 0.99
303.15 K, x2 = 0.3501 | 906.436 ± 0.9
303.15 K, x2 = 0.3985 | 908.906 ± 0.86
303.15 K, x2 = 0.4499 | 911.682 ± 0.81
303.15 K, x2 = 0.4966 | 914.34 ± 0.78
303.15 K, x2 = 0.5031 | 914.737 ± 0.77
303.15 K, x2 = 0.6119 | 921.563 ± 0.69
303.15 K, x2 = 0.6471 | 923.963 ± 0.67
303.15 K, x2 = 0.7275 | 929.874 ± 0.61
303.15 K, x2 = 0.7491 | 931.575 ± 0.59
303.15 K, x2 = 0.7969 | 935.498 ± 0.56
303.15 K, x2 = 0.8463 | 939.82 ± 0.53
303.15 K, x2 = 0.8986 | 944.764 ± 0.5
303.15 K, x2 = 0.9475 | 949.713 ± 0.47
